This passage reports MIC results from US20220249447A1, “CF3-, OCF3-, SCF3-, and SF5-Containing Antibacterial Agents” (Purdue Research Foundation, priority 2019, published 2022).

Converted amounts (≈) assume the structure as drawn.

Broadly, the MIC is the smallest concentration in the dilution series that meets the test's criterion for growth inhibition.

Test [1] deals with C. difficile ATCC BAA 1801. In words: MIC against C. difficile ATCC BAA 1801. Format: cell-based. To be noted: Clostridioides difficile, BAA1801; read-out: MIC C. difficile ATCC BAA 1801. How it is done:
(§1) Bacteria were cultured in cation-adjusted Mueller Hinton Broth (for strains in Tables 1-3) or Brain Heart Infusion broth (for Enterococcus faecium) or Tryptic Soy Broth (all other bacteria) in a 96-well plate at 37° C. for at least 20 hours. The MIC was classified as the lowest concentration where no visual growth of bacteria was observed. The minimum bactericidal concentration (MBC) was tested by spotting 4 μL from wells with no growth onto Tryptic Soy Agar (TSA) plates. Plates were incubated at 37° C. for at least 18 hours before recording the MBC.

The next test has as its system MRSA ATCC 33592. In words: MIC, broth microdilution, MRSA ATCC 33592. Format: cell-based, methicillin-resistant S. aureus. Conditions: Staphylococcus aureus. How it is done:
All MRSA isolates were acquired from BEI Resources. The remaining bacteria were purchased from the American Type Culture Collection (ATCC).
as §1
(Broth dilution looks for growth in wells or tubes with falling amounts of substance.)

Another test deals with S. aureus. In words: MIC, broth microdilution, S. aureus. To be noted: Staphylococcus aureus. Format: cell-based. How it is done: as §1
The subject of test [2] is Neisseria gonorrhea strain 181. In words: MIC against Neisseria gonorrhea strain 181. Format: cell-based. How it is done: as §1

For `O=C(Nc1nnc(-c2cccc(Cl)c2)o1)c1ccc(S(F)(F)(F)(F)F)cc1` [HSGN-259, N-(5-(3-chlorophenyl)-1,3,4-oxadiazol-2-yl)-4-(pentafluoro-k6-sulfaneyl)benzamide], the MIC in test [1] was under 0.003 µg/mL; against MRSA ATCC 33592, 0.0313 µg/mL (≈ 0.0735 µM); against S. aureus, 0.0625 µg/mL (≈ 0.147 µM); in test [2] it was 1 µg/mL (≈ 2.35 µM).

`COc1c(Cl)cc(-c2nnc(NC(=O)c3ccc(SC(F)(F)F)cc3)o2)cc1Cl` [HSGN-265, N-(5-(3,5-dichloro-4-methoxyphenyl)-1,3,4-oxadiazol-2-yl)-4-((trifluoromethyl)thio)benzamide]: the results for the MIC (with MRSA ATCC 33592; with S. aureus; in test [2]) were 0.0625 µg/mL (≈ 0.135 µM), 0.0625 µg/mL (≈ 0.135 µM) and 2 µg/mL (≈ 4.31 µM), respectively.

As for `O=C(Nc1nnc(-c2cccc(Cl)c2)o1)c1ccc(SC(F)(F)F)nc1` [HSGN-247, N-(5-(3-chlorophenyl)-1,3,4-oxadiazol-2-yl)-6-((trifluoromethyl)thio)nicotinamide], the MIC in test [1] amounted to 0.015 µg/mL (≈ 0.0374 µM); with MRSA ATCC 33592, 0.5 µg/mL (≈ 1.25 µM); with S. aureus it was 0.5 µg/mL (≈ 1.25 µM); in test [2], 0.125 µg/mL (≈ 0.312 µM).

`CC[C@H]1OC(=O)[C@H](C)[C@@H](O[C@H]2C[C@@](C)(OC)[C@@H](O)[C@H](C)O2)[C@H](C)[C@@H](O[C@@H]2O[C@H](C)C[C@H](N(C)C)[C@H]2O)[C@](C)(O)C[C@@H](C)CN(C)[C@H](C)[C@@H](O)[C@]1(C)O` [Azithromycin, reference compound] yielded an MIC in test [2] of 256 µg/mL (≈ 342 µM).

For the compound `O=C(Nc1nnc(-c2cccc(C(F)(F)F)c2)o1)c1ccc(SC(F)(F)F)cc1` [HSGN-253, N-(5-(3-(trifluoromethyl)phenyl)-1,3 ,4-oxadiazol-2-yl)-4-((trifluoromethyl)thio)benzamide], the MIC came out at 0.125 µg/mL (≈ 0.288 µM) with MRSA ATCC 33592, 0.25 µg/mL (≈ 0.577 µM) against S. aureus and 2 µg/mL (≈ 4.62 µM) in test [2].

With `O=C(Nc1nnc(-c2ccc(Cl)cc2Cl)o1)c1ccc(SC(F)(F)F)cc1` [HSGN-248, N-(5-(2,4-dichlorophenyl)-1,3,4-oxadiazol-2-yl)-4-((trifluoromethyl)thio)benzamide], the MIC in test [1] was 0.015 µg/mL (≈ 0.0345 µM); against MRSA ATCC 33592 it was 0.25 µg/mL (≈ 0.576 µM); against S. aureus it was 0.5 µg/mL (≈ 1.15 µM); in test [2], over 128 µg/mL.

For `CN(C)[C@@H]1C(O)=C(C(N)=O)C(=O)[C@@]2(O)C(O)=C3C(=O)c4c(O)cccc4[C@@](C)(O)[C@H]3C[C@@H]12` [Tetracycline, reference compound], the MIC in test [2] was found to be 2 µg/mL (≈ 4.5 µM).

For the compound `O=C(Nc1nnc(-c2cccnc2)o1)c1ccc(SC(F)(F)F)cc1` [HSGN-206, N-(5-(pyridin-3-yl)-1,3,4-oxadiazol-2-yl)-4-((trifluoromethyl)thio)benzamide], the MIC in the test with MRSA ATCC 33592 and against S. aureus was 32 µg/mL (≈ 87.4 µM) in each case.

As to `O=S(=O)(Nc1nnc(-c2cccc(Cl)c2)o1)c1ccc(S(F)(F)(F)(F)F)cc1` [HSGN-255, N-(5-(3-chlorophenyl)-1,3,4-oxadiazol-2-yl)-4-(pentafluoro-δ6-sulfaneyl)benzenesulfonamide], the MIC against MRSA ATCC 33592 and in the test with S. aureus was over 64 µg/mL in each case.
